This note sets out measurements from the supplement of paper PMC7840683.

In the experiment the test system is HepaRG. Put plainly: LDH release cytotoxicity, % of total lysis control; higher = more cytotoxic. The note with it: 48 h. A digest of the protocol: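 Single-lot HepaRG cells in collagen I-coated 96-well plates were treated for 48 h in serum-free induction medium containing 0.5% DMSO with test chemicals in eight-point half-log series up to 100 µM. For total lysis, wells received 0.1% Triton X. LDH in 50 µL spent medium was assayed by resorufin fluorescence with CytoTox-ONE. Percent cytotoxicity was normalized to the on-plate vehicle and total lysis controls, with duplicates averaged.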

± gives the standard deviation of the averaged measurements.

On to `Cc1ccc(C)c(C)c1` [1,2,4-Trimethylbenzene], for which the LDH release cytotoxicity (0.03162 µM) was -1.1 ± 0.13%; the LDH release cytotoxicity (0.1 µM) is -1.09 ± 0.14%; the LDH release cytotoxicity (0.3162278 µM) was -1.49 ± 0.63%; the LDH release cytotoxicity (1 µM) was -1.38 ± 0.46%; the LDH release cytotoxicity (3.16228 µM) was -0.646 ± 0.4%; the LDH release cytotoxicity (10 µM) was -0.854 ± 0.4%. Besides, the LDH release cytotoxicity is 0.161 ± 0.23% (31.6228 µM) and 1.55 ± 0.46% (100 µM).
`Cc1ccc(C(C)C)c(O)c1` [Thymol]: the LDH release cytotoxicity was -0.805 ± 1.1% (0.03162 µM); -0.378 ± 0.63% (0.1 µM); -1.08 ± 0.33% (0.3162278 µM); -0.734 ± 0.81% (1 µM); -1.25 ± 0.71% (3.16228 µM); -0.124 ± 0.09% (10 µM). Moreover, the LDH release cytotoxicity stood at 0.381 ± 0.15% (31.6228 µM) and 1.26 ± 0.35% (100 µM).
Consider `CCCN(CCC)N=O` [N-Nitrosodi-n-propylamine], for which the LDH release cytotoxicity (0.03162 µM) was found to be 0.0788 ± 0.46%; the LDH release cytotoxicity (0.1 µM) was -0.576 ± 0.82%; the LDH release cytotoxicity (0.3162278 µM) is -1.11 ± 1.1%; the LDH release cytotoxicity (1 µM) was -2.21 ± 1.1%; the LDH release cytotoxicity (3.16228 µM) was -1.474 ± 0.0032%; the LDH release cytotoxicity (10 µM) was -1.09 ± 0.64%. Moreover, the LDH release cytotoxicity is -1.53 ± 0.55% (31.6228 µM) and 0.635 ± 0.017% (100 µM).
As for `COc1ccc(-c2ccccc2)cc1NNC(=O)OC(C)C` [Bifenazate], the LDH release cytotoxicity is, setting by setting: (0.03162 µM) -1.53 ± 0.49%; (0.1 µM) -1.35 ± 0.97%; (0.3162278 µM) -1.03 ± 0.83%; (1 µM) -1.59 ± 0.54%; (3.16228 µM) -1.11 ± 0.95%; (10 µM) -0.547 ± 1.4%. Further, the LDH release cytotoxicity is -0.468 ± 0.53% (31.6228 µM) and 1.1 ± 1.1% (100 µM).
On to `CC(=O)SC1CC2=CC(=O)CCC2(C)C2CCC3(C)C(CCC34CCC(=O)O4)C12` (centres undefined) [Spironolactone], for which the LDH release cytotoxicity was 0.148 ± 1% (0.03162 µM); -0.279 ± 0.079% (0.1 µM); -1.43 ± 0.44% (0.3162278 µM); -1.93 ± 0.13% (1 µM); -1.42 ± 0.35% (3.16228 µM); -1.46 ± 0.3% (10 µM). The LDH release cytotoxicity runs as follows: (31.6228 µM) -0.441 ± 0.098%; (100 µM) 13.5 ± 1.6%.
Turning to `CC(C)CCCCCCCOC(=O)c1ccccc1C(=O)OCCCCCCCC(C)C`, the LDH release cytotoxicity runs as follows: (0.03162 µM) -1.32 ± 0.57%; (0.1 µM) -1.15 ± 0.18%; (0.3162278 µM) -1.36 ± 0.46%; (1 µM) -1.26 ± 0.61%; (3.16228 µM) -0.979 ± 0.44%; (10 µM) -0.985 ± 0.6%. Further, the LDH release cytotoxicity is -0.631 ± 0.57% (31.6228 µM) and 0.487 ± 0.66% (100 µM).
Take `Cc1ccc(Cl)cc1` [4-Chlorotoluene]: the LDH release cytotoxicity is, setting by setting: (0.031623 µM) -0.192 ± 0.14%; (0.1 µM) -1.27 ± 2.3%; (0.316228 µM) -1.26 ± 0.55%; (1 µM) -2.78 ± 0.39%; (3.16228 µM) -2.43 ± 0.42%; (10 µM) -1.55 ± 1.5%. Moreover, the LDH release cytotoxicity (31.6228 µM) was -1.15 ± 0.57% and the LDH release cytotoxicity (100 µM) worked out at 1.18 ± 0.3%.
For the compound `CCOP(=O)(NC(C)C)Oc1ccc(SC)c(C)c1` (centres undefined) [Fenamiphos], the LDH release cytotoxicity (0.03162 µM) was -1.16 ± 0.47%; the LDH release cytotoxicity (0.1 µM) was -1.81 ± 0.1%; the LDH release cytotoxicity (0.3162278 µM) is -1.38 ± 0.062%; the LDH release cytotoxicity (1 µM) is -1.28 ± 0.5%; the LDH release cytotoxicity (3.16228 µM) is -1.13 ± 0.23%; the LDH release cytotoxicity (10 µM) is -1.56 ± 0.18%. For the same compound, the LDH release cytotoxicity was -1.03 ± 0.43% (31.6228 µM) and 0.0773 ± 0.2% (100 µM).
`Nc1c(Cl)cc([N+](=O)[O-])cc1Cl` [Dicloran]: the LDH release cytotoxicity (0.03162 µM) is -0.748 ± 0.034%; the LDH release cytotoxicity (0.1 µM) was -1.57 ± 0.49%; the LDH release cytotoxicity (0.3162278 µM) was -1.57 ± 0.62%; the LDH release cytotoxicity (1 µM) was -2.63 ± 0.73%; the LDH release cytotoxicity (3.16228 µM) was -1.28 ± 0.36%; the LDH release cytotoxicity (10 µM) was -1.61 ± 0.56%. The LDH release cytotoxicity reads like this: (31.6228 µM) -0.997 ± 0.16%; (100 µM) 0.0971 ± 0.81%.
For `c1ccc2occc2c1` [2,3-Benzofuran], the LDH release cytotoxicity (0.03162 µM) was -0.572 ± 0.84%; the LDH release cytotoxicity (0.1 µM) was -1.07 ± 0.4%; the LDH release cytotoxicity (0.3162278 µM) is -0.829 ± 0.4%; the LDH release cytotoxicity (1 µM) was -0.181 ± 0.71%; the LDH release cytotoxicity (3.16228 µM) was -1.1 ± 0.81%; the LDH release cytotoxicity (10 µM) was found to be 0.338 ± 0.67%. In addition, the LDH release cytotoxicity was determined as 2.32 ± 1.2% (31.6228 µM) and 2.02 ± 0.38% (100 µM).
For `ClC1=C(Cl)C2(Cl)C3C4CC(C5OC45)C3C1(Cl)C2(Cl)Cl` (centres undefined) [Dieldrin], the LDH release cytotoxicity reads like this: (0.03162 µM) -0.556 ± 0.44%; (0.1 µM) -1.67 ± 0.84%; (0.3162278 µM) -1.33 ± 0.11%; (1 µM) -1.987 ± 0.015%; (3.16228 µM) -2.14 ± 0.65%; (10 µM) -0.0152 ± 1.5%. The LDH release cytotoxicity is -0.473 ± 0.01% (31.6228 µM) and 2.21 ± 0.079% (100 µM).
Consider `COc1ccccc1N` [2-Anisidine], for which the LDH release cytotoxicity is -1.27 ± 0.34% (0.03162 µM); -0.978 ± 0.2% (0.1 µM); -0.111 ± 0.059% (0.3162278 µM); -0.865 ± 1.6% (1 µM); -1.04 ± 0.64% (3.16228 µM); 0.222 ± 0.33% (10 µM). Also, the LDH release cytotoxicity (31.6228 µM) came to 0.835 ± 0.33% and the LDH release cytotoxicity (100 µM) turned out to be 4.39 ± 0.47%.
Regarding `N#Cc1c[nH]cc1-c1cccc2c1OC(F)(F)O2` [Fludioxonil], the LDH release cytotoxicity is -1.45 ± 1% (0.03162 µM); -1.69 ± 0.5% (0.1 µM); -1.72 ± 0.45% (0.3162278 µM); -1.04 ± 0.23% (1 µM); 0.437 ± 0.076% (3.16228 µM); 0.919 ± 0.9% (10 µM). Further, the LDH release cytotoxicity was 3.74 ± 0.92% (31.6228 µM) and 9.41 ± 1.2% (100 µM).
As to `CCc1cccc(CC)c1N(COC)C(=O)CCl` [Alachlor], the LDH release cytotoxicity reads like this: (0.031623 µM) -1.16 ± 0.26%; (0.1 µM) -1.83 ± 1.3%; (0.316228 µM) -2.33 ± 2.1%; (1 µM) -2.4 ± 0.71%; (3.16228 µM) -2.62 ± 0.18%; (10 µM) -2.23 ± 0.35%. Besides, the LDH release cytotoxicity is, setting by setting: (31.6228 µM) -2.51 ± 0.88%; (100 µM) -0.425 ± 0.47%.
As for `NS(=O)(=O)c1cc2c(cc1Cl)NCNS2(=O)=O` [Hydrochlorothiazide], the LDH release cytotoxicity was -0.499 ± 1.2% (0.03162 µM); -1.26 ± 0.43% (0.1 µM); -1.458 ± 0.011% (0.3162278 µM); -1.51 ± 0.88% (1 µM); -1.15 ± 0.3% (3.16228 µM); -0.679 ± 0.3% (10 µM). Further, the LDH release cytotoxicity reads like this: (31.6228 µM) -1.51 ± 0.25%; (100 µM) -0.146 ± 0.38%.
In the case of `Sc1nc2ccccc2s1` [2-Mercaptobenzothiazole], the LDH release cytotoxicity is -0.515 ± 0.59% (0.03162 µM); 0.0327 ± 0.27% (0.1 µM); -0.565 ± 1.2% (0.3162278 µM); -0.708 ± 0.47% (1 µM); 0.4 ± 0.3% (3.16228 µM); 0.658 ± 0.27% (10 µM). In addition, the LDH release cytotoxicity reads like this: (31.6228 µM) 1.05 ± 0.11%; (100 µM) 3.61 ± 0.18%.
For the compound `C=C(C)C1Cc2c(ccc3c2OC2COc4cc(OC)c(OC)cc4C2C3=O)O1` (centres undefined) [Rotenone], the LDH release cytotoxicity was -3.41 ± 0.1% (0.03162 µM); -3.52 ± 0.84% (0.1 µM); -4.58 ± 0.21% (0.3162278 µM); 4.61 ± 1.4% (1 µM); 19.6 ± 4.5% (3.16228 µM); 48.4 ± 1.8% (10 µM). Besides, the LDH release cytotoxicity by setting is: (31.6228 µM) 71.8 ± 1.5%; (100 µM) 72.3 ± 0.95%.
Take `COCCOCCOCCOC` [Triethylene glycol dimethyl ether]: the LDH release cytotoxicity runs as follows: (0.03162 µM) -0.0874 ± 2%; (0.1 µM) -4.26 ± 1.7%; (0.3162278 µM) -4.61 ± 0.24%; (1 µM) -3.35 ± 0.35%; (3.16228 µM) -3.81 ± 0.89%; (10 µM) -3.38 ± 0.75%. Moreover, the LDH release cytotoxicity (31.6228 µM) is -2.47 ± 1.8% and the LDH release cytotoxicity (100 µM) was found to be 1.14 ± 1.8%.
